The source of these data is patent publication US20260317319A1, “NOVEL ERGOLINES AND METHODS OF TREATING MOOD DISORDERS” (Gilgamesh Pharma Inc., priority 2023, published 2026).

Molecules are shown by their SMILES. Read-outs that look alike come from different tables or passages of the source.

For assay [1], the target named is T1, D2 dopamine receptor (Homo sapiens, UniProt P14416).
T1 construct: expressed in transfected cells
Nature of the assay: Ca2+ flux functional assay at D2. Type of assay: cell-based. The conditions noted are these: for Emax: agonist, Ca2+ flux, max dose, read-out: D2 % Act @ Max Dose; for maximal efficacy at D2: compared to the N-methyl compound LSD. As to the method:
(§1) Disclosed compounds were tested for agonist activity at several adrenergic (Alpha1A and Alpha2A) and dopamine (D1 and D2) receptor subtypes using Ca^2+ flux functional assays, with the results summarized in Table 6. Selectivity for the 5-HT2A receptor over these other targets varied depending on the specific target and compound.
(§2) Functional Assays at Adrenergic and Dopamine Receptors. Agonist activity at Alpha1A, Alpha2A, D1, and D2 receptors was determined using a FLIPR Ca^2+ flux assay at WuXi AppTec (Hong Kong) Limited according to their standard protocols. Briefly, stably transfected cells expressing the receptor of interest were grown and plated in a 384 well plate and incubated at 37° C. and 5% CO2 overnight. A solution of 250 mM probenecid in 1 mL FLIPR assay buffer was prepared fresh. This was combined with a fluorescent dye (Fluo-4 Direct™) to make a final assay concentration of 2.5 mM. Compounds were diluted 1:3.16 for 10 points and 750 nL was added to a 384 well compound plate using ECHO along with 30 μL assay buffer. The fluorescent dye was then added to the assay plate along with assay buffer to a final volume of 40 μL. The cell plate was incubated for 50 min at 37° C. and 5% CO2 and placed into the FLIPR Tetra along with the compound plate. 10 μL of references and compounds were then transferred from the compound plate into the cell plate and the fluorescent signal was read.
(In general: Calcium assays in cells follow changes in intracellular calcium, usually with a dye or a luminescent sensor.)

For assay [2], the target named is T2, 5-HT2C receptor (Homo sapiens, UniProt P28335).
T2 sequence (P28335 33-458): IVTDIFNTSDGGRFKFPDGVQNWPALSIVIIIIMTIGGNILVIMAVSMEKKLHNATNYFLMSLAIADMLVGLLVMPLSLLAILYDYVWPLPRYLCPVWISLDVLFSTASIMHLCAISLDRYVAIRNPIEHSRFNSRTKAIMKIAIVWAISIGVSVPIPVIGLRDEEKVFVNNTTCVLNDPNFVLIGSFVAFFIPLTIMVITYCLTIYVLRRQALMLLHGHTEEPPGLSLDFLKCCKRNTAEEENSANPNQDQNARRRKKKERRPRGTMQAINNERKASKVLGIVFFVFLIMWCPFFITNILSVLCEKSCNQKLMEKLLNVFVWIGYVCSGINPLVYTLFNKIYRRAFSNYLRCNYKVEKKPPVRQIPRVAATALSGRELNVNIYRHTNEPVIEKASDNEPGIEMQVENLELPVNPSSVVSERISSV
Nature of the assay: cell-based. The conditions noted are these: for Emax: read-out: 5-HT2C % Act @ Max Dose; for EC50: read-out: 5-HT2C EC50.

The target of assay [3] is T3, Alpha2A adrenergic receptor (Homo sapiens, UniProt P08913).
T3 construct: expressed in transfected cells
T3 sequence (P08913 1-465): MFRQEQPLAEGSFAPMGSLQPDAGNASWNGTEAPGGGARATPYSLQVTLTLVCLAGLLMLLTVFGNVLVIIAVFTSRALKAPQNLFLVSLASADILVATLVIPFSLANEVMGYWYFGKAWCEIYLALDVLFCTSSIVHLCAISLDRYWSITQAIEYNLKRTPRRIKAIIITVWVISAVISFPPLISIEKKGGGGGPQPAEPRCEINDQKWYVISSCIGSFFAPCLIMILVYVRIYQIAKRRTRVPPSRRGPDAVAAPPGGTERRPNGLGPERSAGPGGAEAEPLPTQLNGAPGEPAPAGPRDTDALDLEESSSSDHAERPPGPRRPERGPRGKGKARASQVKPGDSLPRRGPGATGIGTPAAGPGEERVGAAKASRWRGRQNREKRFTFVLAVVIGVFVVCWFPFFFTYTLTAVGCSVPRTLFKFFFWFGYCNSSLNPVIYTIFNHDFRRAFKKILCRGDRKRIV
As to the kind of experiment: Ca2+ flux functional assay at Alpha2A. The conditions noted are these: for maximal efficacy at Alpha2A: "higher" is compared to the N-methyl compound LSD; for Emax: agonist, Ca2+ flux, max dose, read-out: Alpha 2A % Act @ Max Dose. Type of assay: cell-based. The protocol:
as §2, with “Compounds were diluted 1:3.16 for 10 points and 750 nL was added to a 384 well compound plate using ECHO along with 30 μL assay buffer.” left out

Assay [4] concerns the target T4, Alpha1A adrenergic receptor (Homo sapiens, UniProt P35348).
T4 construct: expressed in transfected cells
T4 sequence (P35348 1-466): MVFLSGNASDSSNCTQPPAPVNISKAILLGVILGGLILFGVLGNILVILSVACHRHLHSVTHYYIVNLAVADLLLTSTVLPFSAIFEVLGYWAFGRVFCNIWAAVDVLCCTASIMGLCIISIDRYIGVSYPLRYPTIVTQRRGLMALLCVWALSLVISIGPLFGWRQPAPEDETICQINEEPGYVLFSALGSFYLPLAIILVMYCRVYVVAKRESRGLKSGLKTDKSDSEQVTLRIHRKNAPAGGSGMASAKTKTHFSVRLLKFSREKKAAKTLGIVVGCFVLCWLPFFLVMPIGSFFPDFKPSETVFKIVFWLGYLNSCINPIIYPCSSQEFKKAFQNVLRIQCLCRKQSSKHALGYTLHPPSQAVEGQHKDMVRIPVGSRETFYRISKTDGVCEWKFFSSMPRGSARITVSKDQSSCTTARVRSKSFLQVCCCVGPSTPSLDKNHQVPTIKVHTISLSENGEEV
Nature of the assay: Ca2+ flux functional assay at Alpha1A. Type of assay: cell-based. The conditions noted are these: for maximal efficacy at Alpha1A: "higher" is compared to the N-methyl compound LSD; for Emax: agonist, Ca2+ flux, max dose, read-out: Alpha 1A % Act @ Max Dose. The protocol: as §1, §2

The target of assay [5] is T5, D1 dopamine receptor (Homo sapiens, UniProt P21728).
T5 construct: expressed in transfected cells
T5 sequence (P21728 whole entry): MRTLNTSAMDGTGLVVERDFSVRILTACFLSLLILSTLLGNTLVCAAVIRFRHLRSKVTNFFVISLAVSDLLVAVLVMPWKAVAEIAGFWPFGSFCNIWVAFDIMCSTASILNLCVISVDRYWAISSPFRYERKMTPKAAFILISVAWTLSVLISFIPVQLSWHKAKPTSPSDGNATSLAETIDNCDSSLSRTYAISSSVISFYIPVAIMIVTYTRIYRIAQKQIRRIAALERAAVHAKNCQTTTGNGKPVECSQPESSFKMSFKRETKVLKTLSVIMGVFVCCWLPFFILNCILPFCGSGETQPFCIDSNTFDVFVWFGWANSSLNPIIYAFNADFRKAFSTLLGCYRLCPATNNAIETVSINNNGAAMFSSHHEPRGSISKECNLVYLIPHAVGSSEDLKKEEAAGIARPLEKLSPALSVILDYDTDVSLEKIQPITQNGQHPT
As to the kind of experiment: Ca2+ flux functional assay at D1. Type of assay: cell-based. The conditions noted are these: agonist, max dose, read-out: D1 % Act @ Max Dose. The protocol:
as §1, §2

Where [6] appears, read: agonist, Ca2+ flux, Eurofins DiscoverX protocol, max dose.
Where [7] appears, read: agonist, Ca2+ flux, Eurofins DiscoverX protocol.

T1 sequence (P14416 whole entry): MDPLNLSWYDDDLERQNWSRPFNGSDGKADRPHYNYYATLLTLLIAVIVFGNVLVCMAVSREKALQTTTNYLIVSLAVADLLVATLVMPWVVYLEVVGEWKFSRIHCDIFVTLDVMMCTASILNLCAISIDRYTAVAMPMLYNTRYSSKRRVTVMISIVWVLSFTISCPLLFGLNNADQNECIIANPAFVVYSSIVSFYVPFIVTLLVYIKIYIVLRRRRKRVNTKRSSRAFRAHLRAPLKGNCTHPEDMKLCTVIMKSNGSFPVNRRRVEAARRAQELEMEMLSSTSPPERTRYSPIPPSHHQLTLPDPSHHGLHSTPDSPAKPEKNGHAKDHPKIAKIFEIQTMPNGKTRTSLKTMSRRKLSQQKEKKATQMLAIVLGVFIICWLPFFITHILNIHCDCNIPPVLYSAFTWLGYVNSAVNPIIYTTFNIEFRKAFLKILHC

For `CCCN1C[C@H](C(=O)N(CC)CC)C=C2c3cccc4[nH]cc(c34)C[C@H]21` [Compound 1, (6aR,9R)—N,N-diethyl-7-propyl-4,6,6a,7,8,9-hexahydroindolo[4,3-fg]quinoline-9-carboxamide], the Emax in assay [1] came to 94.5%; in assay [2] (setting [6]), 107%; in assay [3] it was 58.3%; in assay [4], 80.6%; in assay [5] it was 109%. For the same molecule, in assay [1], the “maximal efficacy at D2” value is given as “substantially higher maximal efficacy”. Besides, the “maximal efficacy at Alpha2A” value in assay [3] is “substantially higher maximal efficacy”. The “maximal efficacy at Alpha1A” value in assay [4] is “substantially higher maximal efficacy”.
For `CCN(CC)C(=O)[C@@H]1C=C2c3cccc4[nH]cc(c34)C[C@H]2N(CCCF)C1` [Compound 2, (6aR,9R)—N,N-diethyl-7-(3-fluoropropyl)-4,6,6a,7,8,9-hexahydroindolo[4,3-fg]quinoline-9-carboxamide], the Emax in assay [1] is 91.2%; in assay [2] (setting [6]), 105%; in assay [3], 65%; in assay [4] it was 110%; in assay [5], 114%. In addition, in assay [1], the “maximal efficacy at D2” value is “substantially higher maximal efficacy”. In addition, in assay [3], the “maximal efficacy at Alpha2A” value is given as “substantially higher maximal efficacy”. Further, the “maximal efficacy at Alpha1A” value in assay [4] is “substantially higher maximal efficacy”.
Regarding `CCCN1C[C@H](C(=O)N[C@H](C)CC)C=C2c3cccc4[nH]cc(c34)C[C@H]21` [Compound 3, (6aR,9R)—N—((R)-sec-butyl)-7-propyl-4,6,6a,7,8,9-hexahydroindolo[4,3-fg]quinoline-9-carboxamide], the Emax came to 117% in assay [1]; 119% in assay [2] (setting [6]); 96.8% in assay [3]; 125% in assay [4]; 121% in assay [5]. For the same molecule, the “maximal efficacy at D2” value in assay [1] is “substantially higher maximal efficacy”. For the same molecule, in assay [3], the “maximal efficacy at Alpha2A” value is on record as “substantially higher maximal efficacy”. Moreover, the “maximal efficacy at Alpha1A” value in assay [4] is “substantially higher maximal efficacy”.
With `CCCN1C[C@H](C(=O)N2[C@@H](C)C[C@@H]2C)C=C2c3cccc4[nH]cc(c34)C[C@H]21` [Compound 4, ((2S,4S)-2,4-dimethylazetidin-1-yl)((6aR,9R)-7-propyl-4,6,6a,7,8,9-hexahydroindolo[4,3-fg]quinolin-9-yl)methanone], the Emax in assay [1] is 117%; in assay [2] (setting [6]) it was 111%; in assay [3], 103%; in assay [4] it was 119%; in assay [5], 114%. Besides, in assay [1], the “maximal efficacy at D2” value is on record as “substantially higher maximal efficacy”. Further, the “maximal efficacy at Alpha2A” value in assay [3] was “substantially higher maximal efficacy”. Also, the “maximal efficacy at Alpha1A” value in assay [4] was “substantially higher maximal efficacy”.
For the molecule `CCCN1C[C@H](C(=O)NC(CC)CC)C=C2c3cccc4[nH]cc(c34)C[C@H]21` [Compound 6, (6aR,9R)—N-(pentan-3-yl)-7-propyl-4,6,6a,7,8,9-hexahydroindolo[4,3-fg]quinoline-9-carboxamide], the Emax in assay [1] amounted to 91.7%; in assay [2] (setting [6]) it was 117%; in assay [5], 93.1%. For the same molecule, in assay [1], the “maximal efficacy at D2” value is given as “substantially higher maximal efficacy”. For the same molecule, in assay [3], the “maximal efficacy at Alpha2A” value is given as “substantially higher maximal efficacy”. The “maximal efficacy at Alpha1A” value in assay [4] is recorded as “substantially higher maximal efficacy”.
Regarding `C=CCN1C[C@H](C(=O)N[C@H](C)CC)C=C2c3cccc4[nH]cc(c34)C[C@H]21` [Compound 8, (6aR,9R)-7-allyl-N—((R)-sec-butyl)-4,6,6a,7,8,9-hexahydroindolo[4,3-fg]quinoline-9-carboxamide], the Emax in assay [2] (setting [6]) was found to be 108%.
For `CCN(CC)C(=O)[C@@H]1C=C2c3cccc4[nH]cc(c34)C[C@H]2N(Cc2ccccc2OC)C1` [Compound 10, (6aR,9R)—N,N-diethyl-7-(2-methoxybenzyl)-4,6,6a,7,8,9-hexahydroindolo[4,3-fg]quinoline-9-carboxamide], the Emax stood at 86.9% in assay [1]; 13.4% in assay [2] (setting [6]); 36.5% in assay [3]; 26.6% in assay [4]; 114% in assay [5]. The “maximal efficacy at Alpha2A” value in assay [3] is “very low efficacy agonists”. Besides, the “maximal efficacy at Alpha1A” value in assay [4] is recorded as “very low efficacy agonists”.
Take `CCN(CC)C(=O)[C@@H]1C=C2c3cccc4[nH]cc(c34)C[C@H]2N(CCc2ccccc2OC)C1` [Compound 11, (6aR,9R)—N,N-diethyl-7-(2-methoxyphenethyl)-4,6,6,7,8,9-hexahydroindolo[4,3-fg]quinoline-9-carboxamide]: the “maximal efficacy at Alpha2A” value in assay [3] is listed as “very low efficacy agonists”. In addition, in assay [4], the “maximal efficacy at Alpha1A” value was “very low efficacy agonists”.
Usually EC50 stands for the midpoint of the concentration-response curve. As to `CCN(CC)C(=O)[C@@H]1C=C2c3cccc4[nH]cc(c34)C[C@H]2N(Cc2cccc(OC)c2)C1` [Compound 18, (6aR,9R)—N,N-diethyl-7-(3-methoxybenzyl)-4,6,6a,7,8,9-hexahydroindolo[4,3-fg]quinoline-9-carboxamide], in assay [2] (setting [6]), the Emax worked out at 7.28%. Moreover, the EC50 in assay [2] (setting [7]) is more than 10 µM.
Take `CCN(CC)C(=O)[C@@H]1C=C2c3cccc4[nH]cc(c34)C[C@H]2N(Cc2ccc(OC)cc2)C1` [Compound 19, (6aR,9R)—N,N-diethyl-7-(4-methoxybenzyl)-4,6,6a,7,8,9-hexahydroindolo[4,3-fg]quinoline-9-carboxamide]: in assay [2] (setting [6]), the Emax stood at 1.7%. The EC50 in assay [2] (setting [7]) is more than 10 µM.
For the molecule `CC[C@@H](C)NC(=O)[C@@H]1C=C2c3cccc4[nH]cc(c34)C[C@H]2N(C)C1` [Int8], the Emax in assay [2] worked out at 98.2%.
For `CCN(CC)C(=O)[C@@H]1C=C2c3cccc4[nH]cc(c34)C[C@H]2N(C)C1` [LSD, lysergic acid diethylamide, reference compound], the Emax was found to be 78.3% in assay [1], 60.3% in assay [4] and 94.9% in assay [5].
